Results from US4704380A, “Method of stimulating the growth of macrophage-like cells utilizing mitogenic peptides” (Washington University, priority 1987, dated 1987).

Experiments:
Type in all cases: cell-based
[1] = test system: growth-arrested murine macrophage-like cells; assay: Cell number / proliferation of growth-arrested macrophage-like cells; conditions: for proliferation of macrophage-like cells: concentration ranges of up to 500 ng/ml
Text: (§1) The various cell lines employed in these tests were the murine macrophage-like cell lines J774, P388D1, RAW and PU5. The various […] used in these tests were platelet-derived growth factor (PDGF), epidermal growth factor (EGF), fibroblast growth factor (FGF), and nerve growth factor (NGF). For background information on these known polypeptide growth factors see, for example, the recent review article by Kris et al., Biotechnology, February 1985, pp. 135-140; and the comprehensive review in Hormonal Proteins and Peptides, Ed. by Choh Hao Li, Vol. 12, "Growth Factors," Academic Press, 1984. EGF, NGF and FGF are commercially available from Biomedical Technologies, Cambridge, Massachusetts. In a representative test, 24 hours following exposure of the growth-arrested cells to optimal concentrations of the peptide (i.e., 10^-8 M), cell numbers inoreased approximately two-fold from a control value of […] cells/culture well. […] The results are set forth in FIG. 2 and in Table I, below. In FIG. 2, the baseline tritiated thymidine (^3 [H]-TdR) incorporation in quiescent J774 cells was 5000 cpm ± 420 s.e.m. (standard error of the mean) per well. The results are expressed as the mean of triplicate determinations.

[2] = test system: J774 murine macrophage-like cells; assay: 3[H]-TdR incorporation in growth-arrested J774 cells
Experimental: (§2) The growth stimulation of macrophage-like cells can be determined by measuring the thymidine uptake of the cells at varying concentrations of the mitogenic peptides of the present invention. This was determined for several macrophage-like cell lines including J774, P388D1, RAW and PU5. These are well-known murine cell lines available, for example, from the American Type Culture Collection, Rockville, Md.
^3 [H]-TdR incorporation. Various cell lines were plated in Dulbeccos's Modified Eagle Medium (DMEM) containing 10% fetal calf serum (FCS) in […] humidified atmosphere at 37° C. at an initial density of 5×10^5 per well in 24 well disposable plastic plates (Falcon, Oxnard, Calif.). Arrest of DNA synthesis (i.e., G0 /G1) was achieved by incubating the cells for 48 hours in serum-free DMEM containing 0.1% bovine serum albumin (BSA). The cells were then exposed to the peptide or to various […], or to FCS for 48 hours. Enhanced thymidine incorporation was assessed following a 2 hour pulse of N-methyl^3 [H]-TdR (1 μCi/ml). The cells were washed ×3 in PBS (phosphate buffered saline, pH 7.4) at 4, precipitated with 10% trichloroacetic acid (30 min at 4) and the insoluble material extracted ×2 with ETOH:ET2 O (3:1 v/v). The precipitate was solubilized in N NaOH and aliquots withdrawn for protein determinations using a dye-binding assay (Bio Rad Labs., Richmond, Calif.) and liquid scintillation spectrometry.
as §1

[3] = test system: PU5 murine macrophage-like cell line; assay: 3[H]-TdR incorporation in growth-arrested PU5 cells
Experimental: as §2
(§3) ^3 [H]-TdR incorporation. Various cell lines were plated in Dulbeccos's Modified Eagle Medium (DMEM) containing 10% fetal calf serum (FCS) in […] humidified atmosphere at 37° C. at an initial density of 5×10^5 per well in 24 well disposable plastic plates (Falcon, Oxnard, Calif.). Arrest of DNA synthesis (i.e., G0 /G1) was achieved by incubating the cells for 48 hours in serum-free DMEM containing 0.1% bovine serum albumin (BSA). The cells were then exposed to the peptide or to various […], or to FCS for 48 hours. Enhanced thymidine incorporation was assessed following a 2 hour pulse of N-methyl^3 [H]-TdR (1 μCi/ml). […]
(§4) The various cell lines employed in these tests were the murine macrophage-like cell lines J774, P388D1, RAW and PU5. […] The results are expressed as the mean of triplicate determinations.

[4] = test system: RAW murine macrophage-like cell line; assay: 3[H]-TdR incorporation in growth-arrested RAW cells
Experimental: as §2, §3, §4

[5] = test system: P388D1 murine macrophage-like cell line; assay: 3[H]-TdR incorporation in growth-arrested P388D1 cells
Experimental: as §2, §3, §4

[6] = J774, test (1), >500 ng per well (highest concentration tested), 48 hours exposure, mean ± s.e.m.

Substance: EGF: epidermal growth factor, known polypeptide growth factor [reference compound]
- proliferation of macrophage-like cells [1]: failed to elicit proliferation
- 3[H]-TdR Incorporation/mg/Protein (% Increase) [2, 6]: 5.2± 0.2%

Substance: H-YPPWNKNFTENDLL-OH [Peptide I, H-Tyr-Pro-Pro-Trp-Asn-Lys-Asn-Phe-Thr-Glu-Asn-Asp-Leu-Leu-OH]
- increase in cell numbers over control ([1]; 24 hours after exposure of growth-arrested cells to 10^-8 M): approximately two-fold
- Conc./Well: concentration yielding optimal specific 3[H]-TdR incorporation ([3]; PU5): 10^ -6 M
- 3[H]-TdR Incorporation/mg/Protein (% Increase) ([3]; PU5, test (2), 10^-6 M per well, mean ± s.e.m.): 112± 4.4%
- Conc./Well: concentration yielding optimal specific 3[H]-TdR incorporation [4]: 10^ -8 M
- 3[H]-TdR Incorporation/mg/Protein (% Increase) ([4]; test (2), 10^-8 M per well, mean ± s.e.m.): 276± 18%
- Conc./Well: concentration yielding optimal specific 3[H]-TdR incorporation ([2]; J774): 10^-8 M
- 3[H]-TdR Incorporation/mg/Protein (% Increase) ([2]; J774, test (1), 10^-8 M per well, 48 hours exposure, mean ± s.e.m. of triplicate cultures): 140± 8.5%
- 3[H]-TdR Incorporation/mg/Protein (% Increase) ([2]; J774, test (2), 10^-8 M per well, mean ± s.e.m.): 190± 12%
- Conc./Well: concentration yielding optimal specific 3[H]-TdR incorporation ([5]; P388D1): 10^ -7 M
- 3[H]-TdR Incorporation/mg/Protein (% Increase) ([5]; P388D1, test (2), 10^-7 M per well, mean ± s.e.m.): 226± 22%

Substance: NGF: nerve growth factor, known polypeptide growth factor [reference compound]
- proliferation of macrophage-like cells [1]: failed to elicit proliferation
- 3[H]-TdR Incorporation/mg/Protein (% Increase) [2, 6]: 0± 0.5%

Substance: PDGF [reference compound]
- proliferation of macrophage-like cells [1]: failed to elicit proliferation
- 3[H]-TdR Incorporation/mg/Protein (% Increase) [2, 6]: 9.4± 0.3%
